Several values for one entry are separate records, joined by “and”; a condition that tells them apart may be missing. Equal entries are not always repeated. Inconclusive results and toxic doses are left out. Cut-off read from the data, not from the text of the source: active = T/C of 150% or more; inactive = T/C below 125%.
Test system: L1210 leukemia ip in BDF1 mice, survival T/C
Assay: NCI In Vivo Anticancer Drug Screen. Data for tumor model L1210 Leukemia (intraperitoneal) in B6D2F1 (BDF1) mice
Conditions: endpoint: mean survival time, higher = longer survival
Procedure, shortened: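 Read-out is survival time, reported as the treated-group measurement over the vehicle-control measurement.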

[1] = dose: 100.0 mg/kg/injection, schedule: Q01DX009 (ip), vehicle: Klucel (hydroxypropylcellulose) (HPC)
[2] = dose: 100.0 mg/kg/injection, schedule: Q04DX003 (ip), vehicle: Klucel (hydroxypropylcellulose) (HPC)
[3] = dose: 200.0 mg/kg/injection, schedule: Q01DX009 (ip), vehicle: Klucel (hydroxypropylcellulose) (HPC)
[4] = dose: 200.0 mg/kg/injection, schedule: Q04DX003 (ip), vehicle: Klucel (hydroxypropylcellulose) (HPC)
[5] = dose: 400.0 mg/kg/injection, schedule: Q01DX009 (ip), vehicle: Klucel (hydroxypropylcellulose) (HPC)
[6] = dose: 400.0 mg/kg/injection, schedule: Q04DX003 (ip), vehicle: Klucel (hydroxypropylcellulose) (HPC)
[7] = dose: 100.0 mg/kg/injection, schedule: Q01DX001 (ip), vehicle: saline
[8] = dose: 200.0 mg/kg/injection, schedule: Q01DX001 (ip), vehicle: saline
[9] = dose: 400.0 mg/kg/injection, schedule: Q01DX001 (ip), vehicle: saline
[10] = dose: 100.0 mg/kg/injection, schedule: Q04DX003 (ip), vehicle: saline
[11] = dose: 200.0 mg/kg/injection, schedule: Q04DX003 (ip), vehicle: saline
[12] = dose: 400.0 mg/kg/injection, schedule: Q04DX003 (ip), vehicle: saline
[13] = dose: 100.0 mg/kg/injection, schedule: Q04DX003 (ip), vehicle: saline with Tween-80
[14] = dose: 200.0 mg/kg/injection, schedule: Q04DX003 (ip), vehicle: saline with Tween-80
[15] = dose: 400.0 mg/kg/injection, schedule: Q04DX003 (ip), vehicle: saline with Tween-80
[16] = dose: 100.0 mg/kg/injection, schedule: Q01DX009 (ip), vehicle: saline with Tween-80
[17] = dose: 200.0 mg/kg/injection, schedule: Q01DX009 (ip), vehicle: saline with Tween-80
[18] = dose: 400.0 mg/kg/injection, schedule: Q01DX009 (ip), vehicle: saline with Tween-80

Measured: T/C

Cc1ccc(NS(=O)(=O)c2ccccc2)c(C)c1
inactive: [1] 99 % of control | [2] 104 % of control | [3] 99 % of control | [4] 95 % of control | [5] 94 % of control | [6] 98 % of control

Cc1cccc(C(=O)NN)n1
inactive: dose: 12.5 mg/kg/injection, schedule: Q01DX009 (ip), vehicle: saline 94 % of control | dose: 25.0 mg/kg/injection, schedule: Q01DX009 (ip), vehicle: saline 105 % of control

O=C(Nc1ccn(C2OC(CO)C(O)C2O)c(=O)n1)c1ccccc1 (stereo unspecified)
inactive: [7] 97 % of control | [8] 97 % of control | [9] 86 % of control

O=C(c1ccccc1)N1CC1(c1ccccc1)C1(c2ccccc2)SCCCS1 (stereo unspecified)
inactive: dose: 100.0 mg/kg/injection, schedule: Q01DX001 (ip), vehicle: Klucel (hydroxypropylcellulose) (HPC) 95 % of control | dose: 200.0 mg/kg/injection, schedule: Q01DX001 (ip), vehicle: Klucel (hydroxypropylcellulose) (HPC) 98 % of control | dose: 400.0 mg/kg/injection, schedule: Q01DX001 (ip), vehicle: Klucel (hydroxypropylcellulose) (HPC) 92 % of control

O=C(NNC(=O)c1cccc2ccccc12)c1cc(Br)ccc1Br
inactive: [10] 97 % of control | [11] 87 % of control | [12] 100 % of control

O=C(c1ccccc1)C1(Br)CCCCC1
inactive: [1] 96 % of control | dose: 100.0 mg/kg/injection, schedule: Q01DX009 (ip), vehicle: saline 95 % of control | [3] 96 % of control | [5] 93 % of control | dose: 400.0 mg/kg/injection, schedule: Q01DX009 (ip), vehicle: saline 101 % of control

COc1cc(Oc2c(OC)cc(NC(C)=O)cc2OC)cc(OC)c1OC
inactive: [13] 94 % of control | [14] 97 % of control | [15] 95 % of control

CC(C)C[n+]1cc([O-])on1
inactive: dose: 6.25 mg/kg/injection, schedule: Q01DX009 (ip), vehicle: Klucel (hydroxypropylcellulose) (HPC) 97 % of control | dose: 12.5 mg/kg/injection, schedule: Q01DX009 (ip), vehicle: Klucel (hydroxypropylcellulose) (HPC) 100 % of control

O=C(Cl)C(c1ccccc1)c1ccccc1
inactive: [2] 108 % of control | [4] 98 % of control | [6] 96 % of control

O=C1C(=O)N(CN2CCCCC2)c2ccccc21
inactive: [16] 98 % of control | [13] 109 % of control | [17] 113 % of control | [14] 109 % of control | [18] 104 % of control | [15] 108 % of control

CCOC(=O)C1C2OC(=O)C(C(=O)C2N=Nc2ccc(-c3ccc(N=NC4C(=O)C5C(=O)OC4C(C(=O)OCC)C5C4CC=CCC4)cc3)cc2)C1C1CC=CCC1 (stereo unspecified)
inactive: dose: 100.0 mg/kg/injection, schedule: Q01DX001 (ip), vehicle: other 86 % of control | [16] 108 % of control | [13] 100 % of control | dose: 200.0 mg/kg/injection, schedule: Q01DX001 (ip), vehicle: other 86 % of control | [17] 104 % of control | [14] 100 % of control | [18] 102 % of control | [15] 100 % of control

CC(=O)OC1COC(n2cnc3c(N)ncnc32)C(OC(C)=O)C1OC(C)=O (stereo unspecified)
inactive: dose: 50.0 mg/kg/injection, schedule: Q01DX001 (ip), vehicle: saline 100 % of control | [7] 97 % of control | [8] 100 % of control

OCCc1nn[nH]n1
inactive: [10] 104 % of control | [11] 93 % of control | [12] 98 % of control

O=C1c2cc(Cl)cc(Cl)c2-c2c1cc(Cl)cc2[N+](=O)[O-]
inactive: [1] 97 % of control | [2] 97 % of control | [3] 95 % of control | [4] 97 % of control | [5] 97 % of control | [6] 92 % of control

CCc1ccc(NC(=O)Nc2ccccc2OC)cc1
inactive: dose: 100.0 mg/kg/injection, schedule: Q01DX009 (ip), vehicle: gum acacia 97 % of control | dose: 100.0 mg/kg/injection, schedule: Q04DX003 (ip), vehicle: gum acacia 98 % of control | dose: 200.0 mg/kg/injection, schedule: Q01DX009 (ip), vehicle: gum acacia 94 % of control | dose: 200.0 mg/kg/injection, schedule: Q04DX003 (ip), vehicle: gum acacia 92 % of control | dose: 400.0 mg/kg/injection, schedule: Q01DX009 (ip), vehicle: gum acacia 91 % of control | dose: 400.0 mg/kg/injection, schedule: Q04DX003 (ip), vehicle: gum acacia 104 % of control

CCCCCCCN=C(N)c1ccc(C(=O)OCc2ccccc2)cc1
inactive: [7] 94 % of control | [8] 90 % of control

ClCc1c(Cl)cccc1Cl
inactive: dose: 100.0 mg/kg/injection, schedule: Q04DX002 (ip), vehicle: Klucel (hydroxypropylcellulose) (HPC) 97 % of control | dose: 200.0 mg/kg/injection, schedule: Q04DX002 (ip), vehicle: Klucel (hydroxypropylcellulose) (HPC) 97 % of control | dose: 400.0 mg/kg/injection, schedule: Q04DX002 (ip), vehicle: Klucel (hydroxypropylcellulose) (HPC) 97 % of control

CC(=O)OCC1OC(n2ccc(=O)[nH]c2=O)C(OC(C)=O)C1OC(C)=O (stereo unspecified)
inactive: [7] 100 % of control | [8] 103 % of control | [9] 106 % of control

CC(=O)/C(C)=N\NC(=O)c1ccccn1
inactive: dose: 25.0 mg/kg/injection, schedule: Q01DX015 (ip), vehicle: water 119 % of control | dose: 50.0 mg/kg/injection, schedule: Q01DX001 (ip), vehicle: water 108 % of control | dose: 50.0 mg/kg/injection, schedule: Q01DX015 (ip), vehicle: water 108 % of control | dose: 100.0 mg/kg/injection, schedule: Q01DX001 (ip), vehicle: water 121 % of control | dose: 100.0 mg/kg/injection, schedule: Q01DX015 (ip), vehicle: water 119 % of control | dose: 200.0 mg/kg/injection, schedule: Q01DX001 (ip), vehicle: water 108 % of control

CC(=O)c1ccc(NC(=S)Nc2ccc(C(C)=O)cc2)cc1
inactive: dose: 5.0 mg/kg/injection, schedule: Q01DX009 (ip), vehicle: saline with Tween-80 87 % of control | dose: 10.0 mg/kg/injection, schedule: Q01DX009 (ip), vehicle: saline with Tween-80 103 % of control | dose: 20.0 mg/kg/injection, schedule: Q01DX009 (ip), vehicle: saline with Tween-80 98 % of control and 115 % of control | dose: 40.0 mg/kg/injection, schedule: Q01DX009 (ip), vehicle: saline with Tween-80 97 % of control and 102 % of control | dose: 80.0 mg/kg/injection, schedule: Q01DX009 (ip), vehicle: saline with Tween-80 86 % of control | dose: 84.0 mg/kg/injection, schedule: Q01DX009 (ip), vehicle: saline with Tween-80 98 % of control | dose: 320.0 mg/kg/injection, schedule: Q01DX009 (ip), vehicle: saline with Tween-80 102 % of control

N#CC1(c2ccccc2)CCCCC1
inactive: dose: 100.0 mg/kg/injection, schedule: Q01DX001 (ip), vehicle: carboxymethylcellulose (CMC) 96 % of control | dose: 200.0 mg/kg/injection, schedule: Q01DX001 (ip), vehicle: carboxymethylcellulose (CMC) 89 % of control | dose: 400.0 mg/kg/injection, schedule: Q01DX001 (ip), vehicle: carboxymethylcellulose (CMC) 94 % of control

Cn1c(=O)c2[n-]cnc2n(C)c1=O.Cn1c(=O)c2[n-]cnc2n(C)c1=O.[Pt+2]
inactive: dose: 25.0 mg/kg/injection, schedule: Q04DX003 (ip), vehicle: saline with Tween-80 102 % of control | dose: 50.0 mg/kg/injection, schedule: Q04DX003 (ip), vehicle: saline with Tween-80 98 % of control | [13] 98 % of control

Oc1ccc([S+](c2ccc(O)cc2)c2ccc(O)cc2)cc1
inactive: dose: 5.0 mg/kg/injection, schedule: Q01DX001 (ip), vehicle: saline 96 % of control | dose: 10.0 mg/kg/injection, schedule: Q01DX001 (ip), vehicle: saline 96 % of control | dose: 20.0 mg/kg/injection, schedule: Q01DX001 (ip), vehicle: saline 107 % of control | dose: 40.0 mg/kg/injection, schedule: Q01DX001 (ip), vehicle: saline 105 % of control

COc1ccc(C2NC(=O)CCC2N)cc1OC (stereo unspecified)
inactive: dose: 100.0 mg/kg/injection, schedule: Q01DX001 (ip), vehicle: saline with Tween-80 99 % of control | dose: 200.0 mg/kg/injection, schedule: Q01DX001 (ip), vehicle: saline with Tween-80 101 % of control | dose: 400.0 mg/kg/injection, schedule: Q01DX001 (ip), vehicle: saline with Tween-80 95 % of control

Reference: PubChem BioAssay AID248 (DTP/NCI, 2004)
